{
  "source": "patent US8119660B2",
  "about": "“Small-molecule inhibitors of the androgen receptor” (The Regents of the University of California, priority 2007, dated 2012)",
  "key": {"[1]": {"system": "endogenous AR-regulated gene expression, LAPC4 cells", "assay": "qRT-PCR of androgen-responsive genes in LAPC4 cells", "format": "cell-based, human", "settings": "No DHT = 1, 3 nM DHT alone or with 1 uM BIC, 100 nM PP or 100 nM HH", "method": "(§1) LAPC4 and LNCaP cells were grown in the presence or absence of 3 nM DHT in charcoal-stripped media, with or without the inhibitors. RNA was harvested using an RNAeasy kit (Qiagen) and reverse transcribed (MMLV-RT, Invitrogen). Real-time PCR was carried out on a 7300 Real Time PCR System (Applied Biosystems) using SYBR green as the detecting dye and Rox as the reference dye. The androgen responsive genes kalikrein 3, or PSA (KLK3) [Cleutjens, K. B., et al., Two androgen response regions cooperate in steroid hormone regulated activity of the prostate-specific antigen promoter. J Biol Chem, 1996. 271(11): p. 6379-88; Nelson, P. S., et al., The program of androgen-responsive genes in neoplastic prostate epithelium. Proc Natl Acad Sci USA, 2002. 99(18): p. 11890-5), metalloproteinase 16 (MMP16) (Nelson, P. S., et al., The program of androgen-responsive genes in neoplastic prostate epithelium. Proc Natl Acad Sci USA, 2002. 99(18): p. 11890-5), transmembrane protease serine 2 (TMPRSS2) (Nelson, P. S., et al., The program of androgen-responsive genes in neoplastic prostate epithelium. Proc Natl Acad Sci USA, 2002. 99(18): p. 11890-5; […] Vaarala, M. H., et al., Expression of transmembrane serine protease TMPRSS2 in mouse and human tissues. J Pathol, 2001. 193(1): p. 134-40), FK506-binding immunophilin 51 (FKBP51) (Nelson, P. S., et al., The program of androgen-responsive genes in neoplastic prostate epithelium. Proc Natl Acad Sci USA, 2002. 99(18): p. 11890-5; Amler, L. C., et al., Dysregulated expression of androgen-responsive and nonresponsive genes in the androgen-independent prostate cancer xenograft model CWR22-R1. Cancer Res, 2000. 60(21): p. 6134-41; Velasco, A. M., et al., Identification and validation of novel androgen-regulated genes in prostate cancer. Endocrinology, 2004. 145(8): p. 3913-24; Magee, J. A., et al., Direct, androgen receptor-mediated regulation of the FKBP5 gene via a distal enhancer element. Endocrinology, 2006. 147(1): p. 590-8), G-protein coupled receptor RDC1 homolog, or chemokine orphan receptor 1 (RDC-1) (Nelson, P. S., et al., The program of androgen-responsive genes in neoplastic prostate epithelium. Proc Natl Acad Sci USA, 2002. 99(18): p. 11890-5), NK homeobox family member 3 (Nk×3.1) (Nelson, P. S., et al., The program of androgen-responsive genes in neoplastic prostate epithelium. Proc Natl Acad Sci USA, 2002. 99(18): p. 11890-5; Bieberich, C. J., et al., Prostate-specific and androgen-dependent expression of a novel homeobox gene. J Biol Chem, 1996. 271(50): p. 31779-82; […]) were all normalized to the transcription of the housekeeping ribosomal gene (RPL19). All samples were done in triplicate and separately normalized."}, "[2]": {"system": "endogenous AR-regulated gene expression, LNCaP cells", "assay": "qRT-PCR of androgen-responsive genes in LNCaP cells", "format": "cell-based, human", "settings": "No DHT = 1, 3 nM DHT alone or with 1 uM BIC, 100 nM PP or 100 nM HH", "method": "as §1"}},
  "note": "Where a name gives a salt, the structure may show the parent alone.",
  "data": [
    {"smiles": "Cc1nccc2c1[nH]c1cc(O)ccc12", "note": "[HH, harmol hydrochloride]", "values": [
      {"measurement": "FKBP51 transcription (normalized to RPL19)", "setting": "[1]", "value": 11.96},
      {"measurement": "KLK3 transcription (normalized to RPL19)", "setting": "[1]", "value": 1.64},
      {"measurement": "MMP16 transcription (normalized to RPL19), androgen-repressed gene", "setting": "[1]", "value": 4.74},
      {"measurement": "Nkx3.1 transcription (normalized to RPL19)", "setting": "[1]", "value": 1.55},
      {"measurement": "RDC1 transcription (normalized to RPL19), androgen-repressed gene", "setting": "[1]", "value": 2.88},
      {"measurement": "TMPRSS2 transcription (normalized to RPL19)", "setting": "[1]", "value": 1.86},
      {"measurement": "FKBP51 transcription (normalized to RPL19)", "setting": "[2]", "value": 1.90},
      {"measurement": "KLK3 transcription (normalized to RPL19)", "setting": "[2]", "value": 1.46},
      {"measurement": "MMP16 transcription (normalized to RPL19), androgen-repressed gene", "setting": "[2]", "value": 1.02},
      {"measurement": "Nkx3.1 transcription (normalized to RPL19)", "setting": "[2]", "value": 1.28},
      {"measurement": "RDC1 transcription (normalized to RPL19), androgen-repressed gene", "setting": "[2]", "value": 1.22},
      {"measurement": "TMPRSS2 transcription (normalized to RPL19)", "setting": "[2]", "value": 1.22}
    ]}
  ]
}
